One data set has as its system SD rats. Briefly: Toxicity test of a 7-day repeatedly intragastric administration in SD rats. The conditions noted are these: SD rats, intragastric once/day, 7 days. The data set is classed as in vivo. The source says: • Test compound 1: GDC-0077 • Test compound 2: the compounds of Example 22 and Example 62 3.2.2 Vehicle • Name: 20% aqueousSBE-β-CD (Captisol) solution 3.2.3 Animal Information • Species & strains: Sprague-Dawley (SD) rat • Animal grade: SPF grade • Number and sex of animals: 160 rats, half male and half female. 3.2.4 Instruments • The ADVIA®2120 series Hematology System with Autoslide was used for blood cell counting; • The SYSMEX CA-500 Coagulation Analyzer was used for the detection of coagulation function indicators; • The TBA-120FR Automated Biochemical Analyzer was used for the detection of blood biochemical indicators; • The Easylyte Electrolyte Analyzer was used for the detection of electrolytes; • The liquid mass spectrometry detector model API4000; • The electron spray ionization (ESI) positive ion mode and column type Agilent ZORBAX XDB-C18 (3.5 μm, 2.1×50 mm) were used for bioanalytical detection of plasma samples. 3.3 Experimental Method • 1) In the experiment, 160 rats (80 rats/sex) were divided into 20 groups according to their sex and body weight, wherein 100 rats were used for toxicology study (groups 1 to 10, 5 rats/sex/group) and 60 rats were used for toxicokinetic study (groups 11 to 20, 3 rats/sex/group); • 2) As the vehicle control group, the animals in groups 1 and 11 were intragastrically administered 20% aqueous SBE-β-CD (Captisol) solution; • 3) The animals in groups 2 and 12, groups 3 and 13, and groups 4 and 14 were intragastrically administered 10, 30 and 60 mg/kg of GDC-0077, respectively; • 4) The animals in groups 5 and 15, groups 6 and 16, and groups 7 and 17 were intragastrically administered 10, 30 and 60 mg/kg of the compound of Example 22, respectively; • 5) The animals in groups 8 and 18, groups 9 and 19, groups 10 and 20 were intragastrically administered 10, 30 and 60 mg/kg of the compound of Example 62, respectively; • 5) The animals were administered once a day for 7 consecutive days (the animals in groups 7, 17, 10 and 20 were administered for 6 consecutive days). • 6) The administration volume was 10 mL/kg. • 7) During the experiment, items such as clinical observation, body weight, food intake, clinicopathological indicators (blood cell count, coagulation function, blood biochemistry), toxicokinetics and the like were studied. • 8) All animals were euthanized on Day 8 (the animals in groups 7, 10, 17 and 20 were euthanized after administration on Day 6). • 9) During the experiment, gross anatomical observation was performed on the animals in groups 1 to 10, animals in groups 17 and 20, and dead animals (including animals in toxicological study). Histopathological examination was performed on abnormal tissues, gastrointestinal tissues (such as colon, cecum) and immune tissues (such as thymus). […]

The nature of data set [1]: Hygroscopicity experiment. It is filed as physicochemical. The conditions noted are these: for crystal form (XRPD pattern) after humidification and dehumidification: 1 cycle under 0 to 95% relative humidity; for hygroscopic weight gain / hygroscopicity (in words): RH 80%. The method, then: Crystal form A of mesylate salt, crystal form D of sulfate salt and crystal form A of ethanesulfonate salt of (S)-2-((2-((R)-4-(difluoromethyl)-2-oxothiazolidin-3-yl)-5,6-dihydrobenzo[f]imidazo[1,2-d][1,4]oxazepin-9-yl)amino)propionamide were placed in saturated water vapor with different relative humidity, so that the compound and water vapor reached a dynamic equilibrium, and the percentage of hygroscopic weight gain of the compound after the equilibrium was calculated.

Data set [2] is described as follows: Solubility experiment in different media, thermodynamic solubility at 37°C. The data set is classed as physicochemical. The conditions noted are these: for solubility after salt formation compared with the free compound: 37°C; for solubility at 24 h: thermodynamic from solid, thermodynamic solubility. As for the experimental part: About 2 mg of crystal form A of ethanesulfonate salt of (S)-2-((2-((R)-4-(difluoromethyl)-2-oxothiazolidin-3-yl)-5,6-dihydrobenzo[f]imidazo[1,2-d][1,4]oxazepin-9-yl)amino)propionamide was suspended in different media for 24 hours.

Data set [3] can be described thus: Stability experiment of the solids (60°C, RH 95%, light), HPLC. The data set is classed as physicochemical. The conditions noted are these: light condition (5000 lx) for 10 days. As for the experimental part: About 2 mg of crystal form A of mesylate salt, crystal form C of sulfate salt and crystal form A of ethanesulfonate salt of (S)-2-((2-((R)-4-(difluoromethyl)-2-oxothiazolidin-3-yl)-5,6-dihydrobenzo[f]imidazo[1,2-d][1,4]oxazepin-9-yl)amino)propionamide was placed in a sealed oven at 60° C., in an unsealed container at room temperature under RH 95% (saturated aqueous KNO3 solution) and in a light box (5000 lx±500 lx) and observed for 5 days and 10 days. The content of salt was determined by HPLC using the external standard method. Changes of related substance of salt in substances related to the salts were calculated by normalization of chromatography peak area.

Data set [4] in a line: PK studies in animals of salt crystal forms, intragastric 30 mg/kg. It is filed as in vivo. The conditions noted are these: 0.5% HPMC K4M suspension; for exposure in rats (in words): 30 mg/kg; for AUC(0-inf) / AUC(0-t) / Cmax / Tmax / half-life / MRT inf: rat, in vivo, po, rats, 30 mg/kg (as free compound); for MRT inf: read-out: MRT0-∞. As for the experimental part: 7.2.1 Crystal form A of mesylate salt, crystal form D of sulfate salt and crystal form A of ethanesulfonate salt of (S)-2-((2-((R)-4-(difluoromethyl)-2-oxothiazolidin-3-yl)-5,6-dihydrobenzo[f]imidazo[1,2-d][1,4]oxazepin-9-yl)amino)propionamide were evenly suspended in an aqueous solution containing 0.5% HPMC (hydroxypropyl methylcellulose) K4M, and then intragastrically administered to rats in duplicate at a dose of 30 mg/kg. The amount of the compound was all converted into the amount of the same compound (S)-2-((2-((R)-4-(difluoromethyl)-2-oxothiazolidin-3-yl)-5,6-dihydrobenzo[f]imidazo[1,2-d][1,4]oxazepin-9-yl)amino)propionamide.

A short description of data set [5]: Polymorphic screening experiment. It is filed as physicochemical. The conditions noted are these: slurrying, changing solvent and crystallization mode. As for the experimental part: Organic solvents and water with a certain solubility was chosen to suspend the compound in the solvent system, and the mixture was stirred and slurried at room temperature for 1 week, and then centrifuged. The supernatant was discarded, and the solid was dried in vacuum (−0.1 Mpa) at 40° C. overnight. Then the XRPD of the solid was measured and compared with the XRPD of salt of the compound.

The values that follow come from patent US12624050B2, “Three fused ring derivative-containing salt or crystal form and pharmaceutical composition thereof” (Shanghai Hansoh Biomedical Co., Ltd., priority 2019, dated 2026).

Take `C[C@H](Nc1ccc2c(c1)OCCn1cc(N3C(=O)OC[C@H]3C(F)F)nc1-2)C(N)=O` [GDC-0077, reference compound]: the lethal dose in the data set with SD rats came out at 60 mg/kg.
As usually defined, the solubility is the dissolved amount per volume that the medium holds. The low end stands for a poorly soluble substance, the high end for a readily soluble substance. As a reminder, the AUC(0-inf) is the area under the concentration-time curve extrapolated to infinity. Broadly, the AUC(0-t) is the area under the concentration-time curve up to a stated or last time point. What is called Cmax is the peak of the concentration-time curve. In general, Tmax refers to the time from dosing to the highest level. One may read the half-life as the time needed for the level to fall by half in the phase considered. As for `CCS(=O)(=O)O.C[C@H](Nc1ccc2c(c1)OCCn1cc(N3C(=O)SC[C@H]3C(F)F)nc1-2)C(N)=O` [crystal form A of ethanesulfonate salt, (S)-2-((2-((R)-4-(difluoromethyl)-2-oxothiazolidin-3-yl)-5,6-dihydrobenzo[f]imidazo[1,2-d][1,4]oxazepin-9-yl)amino)propionamide], the “crystal form (XRPD pattern) after humidification and dehumidification” value in data set [1] is reported as “the crystal form did not change”. This compound also came in with a hygroscopic weight gain in data set [1] of 0.207%. In addition, the “hygroscopicity (in words)” value in data set [1] is on record as “slight hygroscopicity”. Further, the “solubility after salt formation compared with the free compound” value in data set [2] (media of pH4 to 8 buffer) is recorded as “slightly lower solubility”; in data set [2] (other media, most obviously in water), “increased the solubility”. For the same compound, the solubility at 24 h in data set [2] (medium of pH 1, simulated gastric fluid, medium pH 1, 37° C.) is 9370 µg/mL; in data set [2] (medium of pH 2, simulated gastric fluid, medium pH 2, 37° C.), 974 µg/mL; in data set [2] (medium of pH 3, aqueous buffer, medium pH 3, 37° C.), 268 µg/mL; in data set [2] (medium of pH 4, aqueous buffer, medium pH 4, 37° C.), 49 µg/mL; in data set [2] (medium of pH 5, aqueous buffer, medium pH 5, 37° C.), 20 µg/mL; in data set [2] (medium of pH 6, aqueous buffer, medium pH 6, 37° C.) it was 5 µg/mL. Also, the solubility at 24 h in data set [2] (medium of pH 7, aqueous buffer, medium pH 7, 37° C.) is 12 µg/mL; in data set [2] (medium of pH 8, aqueous buffer, medium pH 8, 37° C.), 14 µg/mL; in data set [2] (medium Fa (fasted-state simulated intestinal fluid, FaSSIF), 37° C.), 44 µg/mL; in data set [2] (medium Fe (fed-state simulated intestinal fluid, FeSSIF), 37° C.), 163 µg/mL; in data set [2] (medium SGF (simulated gastric fluid), 37° C.), 1150 µg/mL; in data set [2] (medium water, 37° C.), 608 µg/mL. For the same compound, in data set [3], the “increase of new impurity compared with 0 days” value (“increase of new impurity” below) is 0.134%. Further, the “exposure in rats (in words)” value in data set [4] is recorded as “higher exposures”. Also, the AUC(0-inf) in data set [4] amounted to 10400 ng·h/mL. Moreover, the AUC(0-t) in data set [4] was found to be 10000 ng·h/mL. In addition, in data set [4], the Cmax was found to be 1460 ng/mL. For the same compound, the Tmax in data set [4] amounted to 1 h. For the same compound, the half-life in data set [4] is 3.01 h. The MRT inf in data set [4] worked out at 6.98 h. In addition, the “crystal form obtained in polymorphic screening” value in data set [5] was “in crystal form A was obtained”.
For the compound `CS(=O)(=O)O.C[C@H](Nc1ccc2c(c1)OCCn1cc(N3C(=O)SC[C@H]3C(F)F)nc1-2)C(N)=O` [crystal form A of mesylate salt, (S)-2-((2-((R)-4-(difluoromethyl)-2-oxothiazolidin-3-yl)-5,6-dihydrobenzo[f]imidazo[1,2-d][1,4]oxazepin-9-yl)amino)propionamide], in data set [1], the “crystal form (XRPD pattern) after humidification and dehumidification” value is recorded as “the crystal form changed”; the hygroscopic weight gain is given as 3.6%; the “hygroscopicity (in words)” value is “had hygroscopicity”. In addition, the “increase of new impurity” value in data set [3] worked out at 0.523%. In addition, in data set [4], the “exposure in rats (in words)” value is given as “higher exposures”, the area under the curve AUC(0-inf) stood at 10200 ng·h/mL, the AUC(0-t) amounted to 9840 ng·h/mL and the Cmax worked out at 1180 ng/mL. In data set [4], the Tmax is 1 h, the half-life is 3.54 h and the MRT inf turned out to be 6.52 h.
For the compound `C[C@H](Nc1ccc2c(c1)OCCn1cc(N3C(=O)SC[C@H]3C(F)F)nc1-2)C(N)=O.O=S(=O)(O)O` [crystal form C of sulfate salt, (S)-2-((2-((R)-4-(difluoromethyl)-2-oxothiazolidin-3-yl)-5,6-dihydrobenzo[f]imidazo[1,2-d][1,4]oxazepin-9-yl)amino)propionamide], the “increase of new impurity” value in data set [3] came to 0.172%.
